Article PMC12118337, “Development of a Peptide Inhibitor Targeting the C‐SH2 Domain of the SHP2 Phosphatase” (Chembiochem, 2025)
Residues, ends and D or L forms follow the SMILES beside them. *: point of attachment. 5FAM = O=C1OC2(c3ccc(O)cc3Oc3cc(O)ccc32)c2ccc(C(=O)*)cc21; X1 = O=C(O)C(C(=O)O)*

Test system: WT Jurkat T cells
Assay: Peptide cellular uptake by confocal fluorescence microscopy, Jurkat
Type: cell-based
Conditions: confocal fluorescence microscopy via FAM group, live cells, 50 or 100 μM peptide, 2 or 5 h, 37 °C; three independent experiments
Procedure: Multiply charged ions were selected for higher collisional dissociation (HCD) using a normalized collision energy (NCE) of 28%, fragmentation targeting for the 12 most abundant precursor ions. Fragment ions were measured with a resolution of 35,000 with a scan range of 200-2,000 m/z and an AGC target of 1E5. A dynamic exclusion time of 45 s with a maximum ion time of 120 ms and an isolation window of 3 m/z was set. Mass spectrometric data evaluation was performed using MaxQuant 1.6.5.0,[5] searching against a homo sapiens UniProt sequence database (2021/02; 218,230 entries including isoforms) supplemented with the protein sequences of the respective peptide used for the experiment. […] The protein list was analysed with Perseus v2.0.11.[6] […] The data was further analysed with the R language package and identified proteins compared with the CRAPome database (H. sapiens single step epitope tag AP-MS background contaminant list) to mitigate the influence of background contaminants (Table S2).[7] […] The significance thresholds were set to alpha 0.01 and a calculated log2 protein ratio of 4. […]
6. Peptide cellular uptake by fluorescence microscopy
The cell permeability of FAM-labelled peptides in WT Jurkat T cells (peptide 26 and peptide 28) and WT HeLa cells (peptide 28) was visualised by fluorescence microscopy. […]

- cellular uptake in Jurkat cells: no cell uptake
Compound: CC[C@H](C)[C@H](NC(=O)[C@@H](NC(=O)[C@H](C)NC(=O)[C@H](Cc1ccc(OC(C(=O)O)C(=O)O)cc1)NC(=O)[C@H](CCC(=O)O)NC(=O)[C@@H](NC(=O)[C@H](CCC(N)=O)NC(=O)c1ccc2c(c1)C(=O)OC21c2ccc(O)cc2Oc2cc(O)ccc21)[C@@H](C)O)[C@@H](C)O)C(=O)N[C@@H](CCCCN)C(=O)N[C@@H](Cc1c[nH]cn1)C(=O)N1CCC[C@H]1C(N)=O [peptide 26] (5FAM-QTEY(X1)ATIKHP-NH2)
